Consider 2 compounds from patent publication US20060069149A1, “Thiadibenzoazulene derivatives for the treatment of inflammatory diseases” (Pliva-Istrazivacki Institut d.o.o., priority 2003, published 2006).

In the assay the test system is TNF-α and IL-1 secretion. Nature of the assay: investigated assays, not said which: TNF-α and IL-1 secretion in human PBMC, in mouse peritoneal macrophages, LPS-induced secretion in mice, writhing assay, LPS-induced shock in mice. The note with it: active means: PBMC IC50 20 μM or lower; mouse macrophages IC50 10 μM or lower; 30% or more TNF-α inhibition at 10 mg/kg; analgetic activity as acetylsalicylic acid or better; survival 40% or more at 30 mg/kg. As to the method: The inhibitory action of the present compounds upon TNF-α and IL-1 secretion was determined by the following in vitro and in vivo experiments:
Determination of TNF-α and IL-1 Secretion in Human Peripheral Blood Mononuclear Cells in vitro
Human peripheral blood mononuclear cells (PBMC) were prepared from heparinized whole blood after separating PBMC on Ficoll-Paque™Plus (Amersham-Pharmacia). […] The IL-1 level was determined in an assay under the same conditions and with the same number of cells and the same concentration of the stimulus by ELISA procedure (R&D Systems). The percentage of inhibition of TNF-α or IL-1 production was calculated by the equation: % inhibition=[1−(TS−NC)/(PC−NC)]*100. […]
In order to obtain peritoneal macrophages, Balb/C mouse strain males, age 8 to 12 weeks, were injected i.p. with 300 μg of zymosan (SIGMA) dissolved in a phosphate buffer (PBS) in a total volume of 0.1 ml/mouse. […] The TNF-α level in the cell supernatant was determined by ELISA procedure (R&D Systems, Biosource). IL-1 level was determined in an assay, identical to an assay for TNF-a by ELISA procedure (R&D Systems). The percentage of inhibition of TNF-α or IL-1 production was calculated by the equation: % inhibition=[1−(TS−NC)/(PC−NC)]*100. […]

`CCOC(=O)c1cc2c(s1)-c1ccc(OCCN3CCCC3)cc1Oc1ccccc1-2` [Example 4, 10-(2-Pyrrolidin-1-yl-ethoxy)-8-oxa-1-thia-dibenzo[e,h]azulene-2-carboxylic acid ethyl ester]: the “activity in the investigated assays” value is on record as “activity in at least two investigated assays”.

Turning to `CN(C)CCCOCc1cc2c(s1)-c1ccc(OCCCN(C)C)cc1Oc1ccccc1-2` [Example 14, {3-[2-(3-Dimethylamino-propoxymethyl)-8-oxa-1-thia-dibenzo[e,h]azulene-10-yloxy]-propyl}-dimethyl-amine], the “activity in the investigated assays” value is “activity in at least two investigated assays”.
